Test system: not listed separately
Test: In vitro cytotoxicity by MTT assay, HEK 293
Assay type: cell-based, human
Conditions: human, HEK 293 cells, 0.005 μM, read-out: % cytotoxicity (100 − % cell survival) of HEK 293 cell line
Method in brief: (§1)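 After 72 h of compound exposure at 37 °C in 5 % CO2, MTT was added for 4 h and the propanol-solubilised formazan was read at 490 nm. Monolayers (~10,000 cells/well, RPMI-1640 plus 10 % newborn calf serum) had been allowed to form for 24 h beforehand.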
`CC(=O)Nc1ccc(S(=O)(=O)Nc2nnc(S(=O)(=O)NC(=O)c3ccccc3N)s2)cc1` [Compound 6b] showed a cytotoxicity at 72 h, 0.005 µM of 35.6%.

Same assay, conditions: human, HEK 293 cells, 0.015 μM, read-out: % cytotoxicity (100 − % cell survival) of HEK 293 cell line
Work on `CC(=O)Nc1ccc(S(=O)(=O)Nc2nnc(S(=O)(=O)NC(=O)c3ccccc3N)s2)cc1` [Compound 6b] yielded a cytotoxicity at 72 h, 0.015 µM of 36.2%.

Same assay, conditions: human, HEK 293 cells, 0.045 μM, read-out: % cytotoxicity (100 − % cell survival) of HEK 293 cell line
For `CC(=O)Nc1ccc(S(=O)(=O)Nc2nnc(S(=O)(=O)NC(=O)c3ccccc3N)s2)cc1` [Compound 6b], the cytotoxicity at 72 h, 0.045 µM was 37.9%.

Same assay, conditions: human, HEK 293 cells, 0.13 μM, read-out: % cytotoxicity (100 − % cell survival) of HEK 293 cell line
For `CC(=O)Nc1ccc(S(=O)(=O)Nc2nnc(S(=O)(=O)NC(=O)c3ccccc3N)s2)cc1` [Compound 6b], the cytotoxicity at 72 h, 0.13 µM was 39.9%.

Same assay, conditions: human, HEK 293 cells, 0.41 μM, read-out: % cytotoxicity (100 − % cell survival) of HEK 293 cell line
`CC(=O)Nc1ccc(S(=O)(=O)Nc2nnc(S(=O)(=O)NC(=O)c3ccccc3N)s2)cc1` [Compound 6b] showed a cytotoxicity at 72 h, 0.41 µM of 42.6%.

Same assay, conditions: human, HEK 293 cells, 1.23 μM, read-out: % cytotoxicity (100 − % cell survival) of HEK 293 cell line
Work on `CC(=O)Nc1ccc(S(=O)(=O)Nc2nnc(S(=O)(=O)NC(=O)c3ccccc3N)s2)cc1` [Compound 6b] yielded a cytotoxicity at 72 h, 1.23 µM of 43.1%.

Same assay, conditions: human, HEK 293 cells, 3.7 μM, read-out: % cytotoxicity (100 − % cell survival) of HEK 293 cell line
With `CC(=O)Nc1ccc(S(=O)(=O)Nc2nnc(S(=O)(=O)NC(=O)c3ccccc3N)s2)cc1` [Compound 6b] the cytotoxicity at 72 h, 3.7 µM was 44%.

Same assay, conditions: human, HEK 293 cells, 11.11 μM, read-out: % cytotoxicity (100 − % cell survival) of HEK 293 cell line
Work on `CC(=O)Nc1ccc(S(=O)(=O)Nc2nnc(S(=O)(=O)NC(=O)c3ccccc3N)s2)cc1` [Compound 6b] yielded a cytotoxicity at 72 h, 11.11 µM of 45.3%.

Same assay, conditions: human, HEK 293 cells, 33.33 μM, read-out: % cytotoxicity (100 − % cell survival) of HEK 293 cell line
With `CC(=O)Nc1ccc(S(=O)(=O)Nc2nnc(S(=O)(=O)NC(=O)c3ccccc3N)s2)cc1` [Compound 6b] the cytotoxicity at 72 h, 33.33 µM was 46.8%.

Same assay, conditions: human, HEK 293 cells, 100 μM, read-out: % cytotoxicity (100 − % cell survival) of HEK 293 cell line
`CC(=O)Nc1ccc(S(=O)(=O)Nc2nnc(S(=O)(=O)NC(=O)c3ccccc3N)s2)cc1` [Compound 6b] gave a cytotoxicity at 72 h, 100 µM of 48.2%.

Test system: BT474 (breast cancer cell line)
Test: In vitro cytotoxicity by MTT assay, BT474
Assay type: cell-based
Conditions: Homo sapiens, BT-474, 0.005 μM, 72 h, read-out: % cytotoxicity (100 − % cell survival) of BT474 cell line
Method in brief: as §1
In the case of `CC(=O)Nc1ccc(S(=O)(=O)Nc2nnc(S(=O)(=O)NC(=O)c3ccccc3N)s2)cc1` [Compound 6b], the cytotoxicity at 0.005 µM was 24.3%.

Same assay, conditions: Homo sapiens, BT-474, 0.015 μM, 72 h, read-out: % cytotoxicity (100 − % cell survival) of BT474 cell line
In the case of `CC(=O)Nc1ccc(S(=O)(=O)Nc2nnc(S(=O)(=O)NC(=O)c3ccccc3N)s2)cc1` [Compound 6b], the cytotoxicity at 0.015 µM was 25.1%.

Same assay, conditions: Homo sapiens, BT-474, 0.045 μM, 72 h, read-out: % cytotoxicity (100 − % cell survival) of BT474 cell line
Compound `CC(=O)Nc1ccc(S(=O)(=O)Nc2nnc(S(=O)(=O)NC(=O)c3ccccc3N)s2)cc1` [Compound 6b] has a cytotoxicity at 0.045 µM of 25.8%.

Same assay, conditions: Homo sapiens, BT-474, 0.13 μM, 72 h, read-out: % cytotoxicity (100 − % cell survival) of BT474 cell line
`CC(=O)Nc1ccc(S(=O)(=O)Nc2nnc(S(=O)(=O)NC(=O)c3ccccc3N)s2)cc1` [Compound 6b] showed a cytotoxicity at 0.13 µM of 26.2%.

Same assay, conditions: Homo sapiens, BT-474, 0.41 μM, 72 h, read-out: % cytotoxicity (100 − % cell survival) of BT474 cell line
For `CC(=O)Nc1ccc(S(=O)(=O)Nc2nnc(S(=O)(=O)NC(=O)c3ccccc3N)s2)cc1` [Compound 6b], the cytotoxicity at 0.41 µM was 27.1%.

Same assay, conditions: Homo sapiens, BT-474, 1.23 μM, 72 h, read-out: % cytotoxicity (100 − % cell survival) of BT474 cell line
In the case of `CC(=O)Nc1ccc(S(=O)(=O)Nc2nnc(S(=O)(=O)NC(=O)c3ccccc3N)s2)cc1` [Compound 6b], the cytotoxicity at 1.23 µM was 28.1%.

Same assay, conditions: Homo sapiens, BT-474, 3.7 μM, 72 h, read-out: % cytotoxicity (100 − % cell survival) of BT474 cell line
In the case of `CC(=O)Nc1ccc(S(=O)(=O)Nc2nnc(S(=O)(=O)NC(=O)c3ccccc3N)s2)cc1` [Compound 6b], the cytotoxicity at 3.7 µM was 28.7%.

Same assay, conditions: Homo sapiens, BT-474, 11.11 μM, 72 h, read-out: % cytotoxicity (100 − % cell survival) of BT474 cell line
For `CC(=O)Nc1ccc(S(=O)(=O)Nc2nnc(S(=O)(=O)NC(=O)c3ccccc3N)s2)cc1` [Compound 6b], the cytotoxicity at 11.11 µM was 29.3%.

Same assay, conditions: Homo sapiens, BT-474, 33.33 μM, 72 h, read-out: % cytotoxicity (100 − % cell survival) of BT474 cell line
Work on `CC(=O)Nc1ccc(S(=O)(=O)Nc2nnc(S(=O)(=O)NC(=O)c3ccccc3N)s2)cc1` [Compound 6b] yielded a cytotoxicity at 33.33 µM of 30.3%.

Same assay, conditions: Homo sapiens, BT-474, 100 μM, 72 h, read-out: % cytotoxicity (100 − % cell survival) of BT474 cell line
Compound `CC(=O)Nc1ccc(S(=O)(=O)Nc2nnc(S(=O)(=O)NC(=O)c3ccccc3N)s2)cc1` [Compound 6b] has a cytotoxicity at 100 µM of 32%.

Test system: HEK 293, M468 and NCI-H226
Test: In vitro cytotoxicity by MTT assay, summary over all cell lines
Assay type: cell-based
Conditions: on all cell lines
Description: The cancer cell line cultures of HEK 293 ([…]), BT474 (breast cancer cell line) and NCI-H226 (lung cancer) were obtained from Pasteur Institute of India, Coonoor, India, and were cultured in RPMI-1640 and 10 % heat-[…] New born calf serum with antibiotics [penicillin ([…]), streptomycin (100 μg/mL) and amphotericin B (25 μg/mL)]. The cells were maintained at 37 °C in a humidified atmosphere with 5 % CO2 and were subcultured twice a week.
The monolayer cell culture (100 μL) was trypsinized, and the cell count was adjusted to […] using medium containing 10 % new born calf serum. To each well of the 96-well microtitre plate, the diluted cell suspension (approximately 10,000 cells) (0.1 mL) was added and kept for 24 h in incubator at 37 °C in 5 % CO2 atmosphere for cell monolayer formation. After 24 h, when a partial monolayer was formed at the bottom of the well, the supernatant was flicked off, the monolayer was washed once, and different drugs, i.e. synthesized compounds (100 μL), were added to the cells in microtitre plates. The plates were then incubated at 37 °C for 3 days in 5 % CO2 atmosphere, and microscopic examination was carried out and observations recorded every 24 h. After 72 h, the sample solution in the wells was flicked off; MTT dye ([…]) was added to each well; plates were gently shaken and incubated for 4 h at 37 °C in 5 % CO2 incubator. The supernatant was removed and propanol (50 μL) was added; the plates were gently shaken to solubilize the formed formazan. The absorbance was measured using a microplate reader at a wavelength of 490 nm (Edmondson et al., [1988]; Prasad et al., [2005]; Chiruvella et al., [2008]; Chang et al., [2007]).
For `CC(=O)Nc1ccc(S(=O)(=O)Nc2nnc(S(=O)(=O)NC(=O)c3ccccc3N)s2)cc1` [Compound 6b], the “cytotoxic activity compared with all synthesized compounds” value was “moderate activity”.

Test system: NCI-H226 (lung cancer cell line)
Test: In vitro cytotoxicity by MTT assay, NCI-H226
Assay type: cell-based
Conditions: Homo sapiens, NCI-H226, 0.005 μM, 72 h, read-out: % Cytotoxicity (100 − % cell survival) of NCI-H226 cell line
Method in brief: as §1
Work on `CC(=O)Nc1ccc(S(=O)(=O)Nc2nnc(S(=O)(=O)NC(=O)c3ccccc3N)s2)cc1` [Compound 6b] yielded a cytotoxicity at 0.005 µM of 36.3%.

Same assay, conditions: Homo sapiens, NCI-H226, 0.045 μM, 72 h, read-out: % Cytotoxicity (100 − % cell survival) of NCI-H226 cell line
`CC(=O)Nc1ccc(S(=O)(=O)Nc2nnc(S(=O)(=O)NC(=O)c3ccccc3N)s2)cc1` [Compound 6b] gave a cytotoxicity at 0.045 µM of 38.4%.

Same assay, conditions: Homo sapiens, NCI-H226, 0.13 μM, 72 h, read-out: % Cytotoxicity (100 − % cell survival) of NCI-H226 cell line
`CC(=O)Nc1ccc(S(=O)(=O)Nc2nnc(S(=O)(=O)NC(=O)c3ccccc3N)s2)cc1` [Compound 6b] gave a cytotoxicity at 0.13 µM of 39.1%.

Same assay, conditions: Homo sapiens, NCI-H226, 0.41 μM, 72 h, read-out: % Cytotoxicity (100 − % cell survival) of NCI-H226 cell line
In the case of `CC(=O)Nc1ccc(S(=O)(=O)Nc2nnc(S(=O)(=O)NC(=O)c3ccccc3N)s2)cc1` [Compound 6b], the cytotoxicity at 0.41 µM was 42%.

Same assay, conditions: Homo sapiens, NCI-H226, 1.23 μM, 72 h, read-out: % Cytotoxicity (100 − % cell survival) of NCI-H226 cell line
Compound `CC(=O)Nc1ccc(S(=O)(=O)Nc2nnc(S(=O)(=O)NC(=O)c3ccccc3N)s2)cc1` [Compound 6b] has a cytotoxicity at 1.23 µM of 42.7%.

Same assay, conditions: Homo sapiens, NCI-H226, 3.7 μM, 72 h, read-out: % Cytotoxicity (100 − % cell survival) of NCI-H226 cell line
`CC(=O)Nc1ccc(S(=O)(=O)Nc2nnc(S(=O)(=O)NC(=O)c3ccccc3N)s2)cc1` [Compound 6b] gave a cytotoxicity at 3.7 µM of 43.4%.

Same assay, conditions: Homo sapiens, NCI-H226, 11.11 μM, 72 h, read-out: % Cytotoxicity (100 − % cell survival) of NCI-H226 cell line
For `CC(=O)Nc1ccc(S(=O)(=O)Nc2nnc(S(=O)(=O)NC(=O)c3ccccc3N)s2)cc1` [Compound 6b], the cytotoxicity at 11.11 µM was 45.3%.

Same assay, conditions: Homo sapiens, NCI-H226, 33.33 μM, 72 h, read-out: % Cytotoxicity (100 − % cell survival) of NCI-H226 cell line
For `CC(=O)Nc1ccc(S(=O)(=O)Nc2nnc(S(=O)(=O)NC(=O)c3ccccc3N)s2)cc1` [Compound 6b], the cytotoxicity at 33.33 µM was 47.1%.

Same assay, conditions: Homo sapiens, NCI-H226, 100 μM, 72 h, read-out: % Cytotoxicity (100 − % cell survival) of NCI-H226 cell line
In the case of `CC(=O)Nc1ccc(S(=O)(=O)Nc2nnc(S(=O)(=O)NC(=O)c3ccccc3N)s2)cc1` [Compound 6b], the cytotoxicity at 100 µM was 49.1%.

Test system: not listed separately
Test: In vitro cytotoxicity by MTT assay, NCI-H226
Assay type: cell-based
Conditions: human, NCI-H226 lung cancer cells, 0.015 μM, read-out: % Cytotoxicity (100 − % cell survival) of NCI-H226 cell line
Method in brief: as §1
Compound `CC(=O)Nc1ccc(S(=O)(=O)Nc2nnc(S(=O)(=O)NC(=O)c3ccccc3N)s2)cc1` [Compound 6b] has a cytotoxicity at 72 h, 0.015 µM of 37.3%.

From publication PMC3973950, “Synthesis of 5-arylidine amino-1,3,4-thiadiazol-2-[(N-substituted benzyol)]sulphonamides endowed with potent antioxidants and anticancer activity induces growth inhibition in HEK293, BT474 and NCI-H226 cells” (Medicinal Chemistry Research, 2013)
